Measurements reported in patent US20220185822A1, “SELECTIVE LIGANDS OF HUMAN CONSTITUTIVE ANDROSTANE RECEPTOR” (USTAV ORGANICKE CHEMIE A BIOCHEMIE AV CR, V.V.I., priority 2019, published 2022).
Entries after “also recorded” stand apart in the source; their conditions may differ.

Experiments:
[1] = biological target: T1, human CAR ligand-binding domain (LBD) (Homo sapiens, UniProt Q14994); assay: TR-FRET CAR Coactivator Binding Assay (LanthaScreen); assay type: biochemical
T1 construct: purchased ThermoFisher Scientific PV4836
From the text: The assay uses two fluorophores: a terbium-labeled anti-GST antibody interacting with glutathione-S-transferase tagged human CAR ligand-binding domain (LBD) and a fluorescein-labeled PGC1α coactivator peptide. […] Values above 1 represent the agonistic activity on CAR with subsequent CAR-PGC1α interaction.

human CAR LBD = biological target: T2, human CAR LBD (Homo sapiens, UniProt Q14994); assay: CAR LBD assembly assay (two hybrid luciferase reporter in HepG2 cells); assay type: cell-based
T2 construct: C (151-349 aa) and N (103-150 aa) terminal parts of human CAR LBD; N (103-150 aa) terminal parts of human CAR LBD; expressed in transfected cells; host or cells: HepG2
T2 sequence (Q14994 151-348 isoform Q14994-2 limits assumed): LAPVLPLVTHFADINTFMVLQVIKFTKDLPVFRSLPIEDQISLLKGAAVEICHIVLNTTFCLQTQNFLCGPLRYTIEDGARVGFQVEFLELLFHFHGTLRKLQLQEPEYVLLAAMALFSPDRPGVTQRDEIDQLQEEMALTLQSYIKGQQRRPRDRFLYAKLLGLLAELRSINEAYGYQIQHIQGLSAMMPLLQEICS
T2 sequence (Q14994 103-150 isoform Q14994-2 limits assumed): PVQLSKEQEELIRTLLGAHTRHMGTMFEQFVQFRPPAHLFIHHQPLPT
Procedure: A ligand promotes connection of the two parts of CAR LBD resulting in luciferase transactivation. Luminescence activity in the cell lysate was measured using a commercially available luciferase detection system (Catalog Number E1960, Dual Luciferase Reporter Assay Kit, Promega, Madison, Wis., USA). The data are presented as means and S.D. and expressed as the fold-change of firefly luciferase activity normalized to Renilla luciferase activity in each sample and relative to the vehicle (DMSO 0.1%)-treated controls, which were set at 1.

CAR variant 3 = biological target: T3, CAR variant 3 (Homo sapiens, UniProt Q14994, DEL233-236); assay: Luciferase reporter gene assay with CAR variant 3 in HepG2 cells; assay type: cell-based; conditions: tested at 1 μM; HepG2, 24 h
T3 construct: expressed in transfected cells; host or cells: HepG2
T3 sequence (Q14994 with tags, fused parts or gaps isoform Q14994-8 DEL233-236): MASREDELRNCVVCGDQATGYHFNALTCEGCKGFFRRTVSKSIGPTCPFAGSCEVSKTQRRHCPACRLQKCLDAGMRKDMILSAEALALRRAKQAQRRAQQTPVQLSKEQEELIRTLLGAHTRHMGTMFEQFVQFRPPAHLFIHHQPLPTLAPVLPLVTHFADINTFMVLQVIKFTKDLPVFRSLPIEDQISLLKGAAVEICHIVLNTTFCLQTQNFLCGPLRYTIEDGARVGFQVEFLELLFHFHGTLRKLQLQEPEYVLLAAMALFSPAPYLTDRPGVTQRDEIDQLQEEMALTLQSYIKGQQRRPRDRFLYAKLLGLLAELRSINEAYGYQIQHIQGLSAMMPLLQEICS
T3 sequence (P19793 1-462 partner): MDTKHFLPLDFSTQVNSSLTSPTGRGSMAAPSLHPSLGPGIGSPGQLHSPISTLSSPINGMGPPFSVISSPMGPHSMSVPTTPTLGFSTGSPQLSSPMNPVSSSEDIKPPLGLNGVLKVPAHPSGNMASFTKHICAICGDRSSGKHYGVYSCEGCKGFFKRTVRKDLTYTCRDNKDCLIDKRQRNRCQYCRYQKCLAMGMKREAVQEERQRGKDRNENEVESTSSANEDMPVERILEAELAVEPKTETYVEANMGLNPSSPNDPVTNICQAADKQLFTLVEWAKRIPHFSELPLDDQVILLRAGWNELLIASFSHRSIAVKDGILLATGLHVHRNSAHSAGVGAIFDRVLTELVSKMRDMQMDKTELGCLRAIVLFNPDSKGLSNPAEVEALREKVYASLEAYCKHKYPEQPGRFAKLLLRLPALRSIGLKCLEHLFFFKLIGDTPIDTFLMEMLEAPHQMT
Procedure: (§2) HepG2 cells were then treated with compounds of the invention for 24 h.

[2] = test system: primary human hepatocytes; assay: Viability/cytotoxicity in primary human hepatocytes; assay type: cell-based; conditions: 48 h treatment
glucocorticoid receptor = biological target: T4, glucocorticoid receptor (Homo sapiens, UniProt P04150); assay: Luciferase reporter assay with GAL4 construct with LBD, glucocorticoid receptor; assay type: cell-based; conditions: 10 μM/L
T4 construct: luciferase reporter assays with a GAL4 constructs with LBD of tested nuclear receptors; expressed in transfected cells

estradion β receptor = biological target: T5, estradion β receptor (Homo sapiens, UniProt Q92731); assay: Luciferase reporter assay with GAL4 construct with LBD, estradion β receptor; assay type: cell-based; conditions: 10 μM/L
T5 construct: luciferase reporter assays with a GAL4 constructs with LBD of tested nuclear receptors; expressed in transfected cells

PPARδ = biological target: T6, PPARδ (Homo sapiens, UniProt Q03181); assay: Luciferase reporter assay with GAL4 construct with LBD, PPARδ; assay type: cell-based; conditions: 10 μM/L
T6 construct: luciferase reporter assays with a GAL4 constructs with LBD of tested nuclear receptors; expressed in transfected cells

human CYP2D6 = biological target: T7, human CYP2D6 (Homo sapiens, UniProt P10635); assay: Commercial CYP450-Glo inhibition assay, CYP2D6; assay type: in vitro ADME
T7 construct: purchased Promega V8891
Procedure: (§3) Genetically modified microsomes with human CYP3A4, CYP2C9, CYP2D6 and CYP1A2 enzymes (CYP450-Glo™ CYP3A4 Assay with Luciferin-IPA (Cat. No. V8802), CYP450-Glo™ CYP1A2 with Luciferin-1A2 (Cat. No. V8772), CYP450-Glo™ CYP2C9 Assay with Luciferin-H (Cat. No. V8792, Promega, Madison, Calif.) and P450-Glo™ CYP2D6 Assay Cat. No. V8891, Promega) were used according to manufacturer's procedures. […] Each point was tested in triplicates and experiments have been repeated three times.

human CYP1A2 = biological target: T8, human CYP1A2 (Homo sapiens, UniProt P05177); assay: Commercial CYP450-Glo inhibition assay, CYP1A2; assay type: in vitro ADME
T8 construct: purchased Promega V8772
Procedure: as §3

[3] = test system: CYP2B6 mRNA (CAR target gene); assay: RT-qPCR of CYP2B6 mRNA in HepaRG cells; assay type: cell-based, human; conditions: 24 h of treatment (FIG. 3)
From the text: (§1) Delta-delta method and GAPDH/Gapdh or B2M/B2m housekeeping genes were used for relative quantification. Data are expressed as fold up-/down-regulation compare to vehicle-treated samples/mice.

[4] = test system: CYP2B6 mRNA in HepaRG KO CAR cells; assay: RT-qPCR of CYP2B6 mRNA in HepaRG KO CAR cells; assay type: cell-based, human; conditions: 24 h of treatment (FIG. 3)
From the text: as §1

[5] = test system: CAR target genes mRNAs (Cyp2b10, Cyp2c29, CYP3A4); assay: Single dose study in humanized PXR-CAR-CYP3A4/3A7 mice, liver RT-qPCR; assay type: in vivo; conditions: single p.o. 10 mg/kg, 24 hours (FIG. 5)
Procedure: Four males were used in each group. Livers were sampled 24 hours after application into liquid nitrogen for qRT-PCR analysis.

human PXR = biological target: T9, human PXR (Homo sapiens, UniProt O75469); assay: PXR-responsive luciferase reporter gene assay in HepG2 cells
T9 sequence (O75469 1-434): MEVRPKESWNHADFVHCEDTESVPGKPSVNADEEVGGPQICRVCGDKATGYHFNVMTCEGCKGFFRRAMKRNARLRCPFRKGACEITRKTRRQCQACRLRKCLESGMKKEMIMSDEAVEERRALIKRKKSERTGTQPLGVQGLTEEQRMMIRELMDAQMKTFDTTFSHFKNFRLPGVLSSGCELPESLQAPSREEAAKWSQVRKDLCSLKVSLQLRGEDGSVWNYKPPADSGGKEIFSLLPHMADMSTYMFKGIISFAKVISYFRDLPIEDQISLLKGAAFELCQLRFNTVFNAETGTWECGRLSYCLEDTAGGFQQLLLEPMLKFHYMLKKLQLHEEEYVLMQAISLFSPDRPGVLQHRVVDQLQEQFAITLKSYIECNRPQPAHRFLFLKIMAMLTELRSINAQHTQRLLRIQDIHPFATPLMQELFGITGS
Procedure: as §2

T7 sequence (P10635 whole entry): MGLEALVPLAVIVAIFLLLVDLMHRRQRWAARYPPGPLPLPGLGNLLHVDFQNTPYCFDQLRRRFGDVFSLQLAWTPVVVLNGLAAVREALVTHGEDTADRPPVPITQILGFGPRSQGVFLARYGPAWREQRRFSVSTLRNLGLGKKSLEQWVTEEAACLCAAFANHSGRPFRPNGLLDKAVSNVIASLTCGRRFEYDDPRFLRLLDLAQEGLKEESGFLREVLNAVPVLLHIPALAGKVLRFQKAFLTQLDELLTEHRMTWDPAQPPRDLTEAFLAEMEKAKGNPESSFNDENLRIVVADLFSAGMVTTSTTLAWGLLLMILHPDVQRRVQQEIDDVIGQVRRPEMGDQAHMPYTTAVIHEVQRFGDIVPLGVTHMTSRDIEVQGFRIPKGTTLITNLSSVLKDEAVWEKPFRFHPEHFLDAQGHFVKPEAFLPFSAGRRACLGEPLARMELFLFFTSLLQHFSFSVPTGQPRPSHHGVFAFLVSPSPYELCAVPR
T6 sequence (Q03181 211-439 limits assumed): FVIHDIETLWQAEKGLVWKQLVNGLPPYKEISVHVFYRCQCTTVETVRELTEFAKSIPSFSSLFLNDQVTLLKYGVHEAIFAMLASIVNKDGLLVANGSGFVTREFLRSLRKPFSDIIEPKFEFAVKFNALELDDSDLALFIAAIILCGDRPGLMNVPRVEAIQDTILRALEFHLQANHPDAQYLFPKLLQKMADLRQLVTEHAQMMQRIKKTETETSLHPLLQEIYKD
T5 sequence (Q92731 264-498 limits assumed): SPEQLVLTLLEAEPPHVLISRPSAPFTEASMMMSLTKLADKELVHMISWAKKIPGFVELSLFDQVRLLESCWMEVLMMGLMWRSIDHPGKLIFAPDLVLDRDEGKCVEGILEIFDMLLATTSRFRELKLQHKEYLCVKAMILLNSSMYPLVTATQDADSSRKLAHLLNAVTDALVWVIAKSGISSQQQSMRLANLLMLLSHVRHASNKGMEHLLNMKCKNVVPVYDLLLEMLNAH
T4 sequence (P04150 524-758 limits assumed): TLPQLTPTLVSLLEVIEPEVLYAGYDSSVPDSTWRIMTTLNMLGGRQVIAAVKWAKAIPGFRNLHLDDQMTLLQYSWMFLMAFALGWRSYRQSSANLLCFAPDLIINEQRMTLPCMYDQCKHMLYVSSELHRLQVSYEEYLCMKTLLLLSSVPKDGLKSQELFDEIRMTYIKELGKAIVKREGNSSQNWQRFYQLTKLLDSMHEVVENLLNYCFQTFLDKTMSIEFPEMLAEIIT
T8 sequence (P05177 whole entry): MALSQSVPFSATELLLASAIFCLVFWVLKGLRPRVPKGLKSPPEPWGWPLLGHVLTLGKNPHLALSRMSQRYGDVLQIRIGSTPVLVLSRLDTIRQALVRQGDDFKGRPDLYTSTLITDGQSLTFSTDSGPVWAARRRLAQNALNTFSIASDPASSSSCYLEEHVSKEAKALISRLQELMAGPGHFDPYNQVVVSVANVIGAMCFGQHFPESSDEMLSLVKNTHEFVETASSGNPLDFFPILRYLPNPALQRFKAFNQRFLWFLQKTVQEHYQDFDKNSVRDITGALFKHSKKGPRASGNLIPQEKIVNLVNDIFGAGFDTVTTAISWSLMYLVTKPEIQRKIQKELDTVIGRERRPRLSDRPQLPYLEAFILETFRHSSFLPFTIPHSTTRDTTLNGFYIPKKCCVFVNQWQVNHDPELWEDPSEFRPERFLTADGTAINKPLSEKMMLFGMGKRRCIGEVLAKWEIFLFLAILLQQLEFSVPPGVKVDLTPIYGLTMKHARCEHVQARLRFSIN
T1 sequence (Q14994 103-348 isoform Q14994-2 limits assumed, other chains not shown): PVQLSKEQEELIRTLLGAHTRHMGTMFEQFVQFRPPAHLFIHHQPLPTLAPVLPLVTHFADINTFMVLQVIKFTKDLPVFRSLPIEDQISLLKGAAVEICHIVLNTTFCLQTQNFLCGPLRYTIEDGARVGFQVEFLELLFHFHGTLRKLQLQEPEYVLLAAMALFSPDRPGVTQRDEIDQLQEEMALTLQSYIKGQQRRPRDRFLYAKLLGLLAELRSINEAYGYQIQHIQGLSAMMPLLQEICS

NC(=O)c1cc(Cn2cc(-c3c(-c4ccc(Cl)cc4)nc4cc(F)ccn34)nn2)ccc1Cl [Example 93, 2-Chloro-5-((4-(2-(4-chlorophenyl)-7-fluoroimidazo[1,2-a]pyridin-3-yl)-1H-1,2,3-triazol-1-yl)methyl)benzamide]
EC50 [1]: 71 nM | EC50 (human CAR LBD): 380 nM | CAR3 % of CITCO (1 μM) activity at 1 μM (CAR variant 3): 83% | viability/cytotoxicity in primary human hepatocytes [2]: no effect on viability/cytotoxicity | activation of glucocorticoid receptor (glucocorticoid receptor): do not activate | activation of estradion β receptor (estradion β receptor): do not activate | activation of PPARδ (PPARδ): do not activate | IC50 (human CYP2D6): > 10000 nM | IC50 (human CYP1A2): > 10000 nM | CYP2B6 mRNA in differentiated HepaRG cells [3]: upregulates; also recorded: up-regulation | CYP2B6 mRNA in HepaRG KO CAR cells [4]: not in HepaRG KO CAR cells | CYP3A4 mRNA in the liver [5]: up-regulate | Cyp2b10 mRNA in the liver [5]: up-regulate | Cyp2c29 mRNA in the liver [5]: up-regulate | PXR % of RIF activity (10 μM) at 10 μM (human PXR; tested at 10 μM, HepG2, 24 h): No activation | selectivity and specificity for human CAR in comparison with CITCO (FIG. 2) (human PXR; versus PXR): highly selective and specific for human CAR
